The test deals with Factor D (Homo sapiens (Human), UniProt P00746). As to the kind of experiment: biochemical. The test is classed as biochemical. To be noted: read-out: IC50.

Structures are written as SMILES.

Chain of Factor D (P00746 26-253): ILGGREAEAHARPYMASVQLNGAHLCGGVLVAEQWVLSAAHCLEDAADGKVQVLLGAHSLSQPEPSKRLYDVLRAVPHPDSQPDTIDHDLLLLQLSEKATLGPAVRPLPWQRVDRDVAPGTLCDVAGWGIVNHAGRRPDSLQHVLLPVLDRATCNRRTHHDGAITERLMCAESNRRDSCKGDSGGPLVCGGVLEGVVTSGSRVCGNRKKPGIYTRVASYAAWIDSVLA

For the compound `NC(=O)n1cc(NC(=O)N2C[C@@H](N)C[C@H]2C(=O)NCc2cc(Cl)ccc2F)c2ccccc21` [Example 55, (2S,4S)-4-Amino-pyrrolidine-1,2-dicarboxylic acid 1-[(1-carbamoyl-1H-indol-3-yl)-amide] 2-(5-chloro-2-fluoro-benzylamide)], the IC50 worked out at 0.125 µM. For `NC(=O)n1cc(NC(=O)N2C[C@@H](N)C[C@H]2C(=O)NCc2ccc(F)c(Cl)c2)c2ccccc21` [Example 56, (2S,4S)-4-Amino-pyrrolidine-1,2-dicarboxylic acid 1-[(1-carbamoyl-1H-indol-3-yl)-amide] 2-(3-chloro-4-fluoro-benzylamide)], the half-inhibitory concentration (IC50) was determined as 1.95 µM.

`Cc1c(Cl)cccc1CNC(=O)[C@@H]1C[C@H](N)CN1C(=O)Nc1cn(C(N)=O)c2ccccc12` [Example 57, (2S,4S)-4-Amino-pyrrolidine-1,2-dicarboxylic acid 1-[(1-carbamoyl-1H-indol-3-yl)-amide] 2-(3-chloro-2-methyl-benzylamide)]: the IC50 turned out to be 1.35 µM. For `Cc1ccc(Cl)cc1CNC(=O)[C@@H]1C[C@H](N)CN1C(=O)Nc1cn(C(N)=O)c2ccccc12` [Example 58, (2S,4S)-4-Amino-pyrrolidine-1,2-dicarboxylic acid 1-[(1-carbamoyl-1H-indol-3-yl)-amide] 2-(5-chloro-2-methyl-benzylamide)] the value was 0.35 µM; for `Cc1ccc(CNC(=O)[C@@H]2C[C@H](N)CN2C(=O)Nc2cn(C(N)=O)c3ccccc23)cc1Cl` [Example 59, (2S,4S)-4-Amino-pyrrolidine-1,2-dicarboxylic acid 1-[(1-carbamoyl-1H-indol-3-yl)-amide] 2-(3-chloro-4-methyl-benzylamide)], 6.4 µM. With `NC(=O)n1cc(NC(=O)N2C[C@@H](N)C[C@H]2C(=O)NCc2cc(Cl)cc(Cl)c2)c2ccccc21` [Example 60, (2S,4S)-4-Amino-pyrrolidine-1,2-dicarboxylic acid 1-[(1-carbamoyl-1H-indol-3-yl)-amide] 2-(3,5-dichloro-benzylamide)], the 50% inhibitory concentration (IC50) was determined as 0.8 µM. For `NC(=O)n1cc(NC(=O)N2C[C@@H](N)C[C@H]2C(=O)NCc2ccc(Cl)c(Cl)c2)c2ccccc21` [Example 61, (2S,4S)-4-Amino-pyrrolidine-1,2-dicarboxylic acid 1-[(1-carbamoyl-1H-indol-3-yl)-amide] 2-(3,4-dichloro-benzylamide)], the IC50 worked out at 7.1 µM. In the case of `NC(=O)n1cc(NC(=O)N2C[C@@H](N)C[C@H]2C(=O)NCc2c(F)ccc(Cl)c2F)c2ccccc21` [Example 62, (2S,4S)-4-Amino-pyrrolidine-1,2-dicarboxylic acid 1-[(1-carbamoyl-1H-indol-3-yl)-amide] 2-(3-chloro-2,6-difluoro-benzylamide)], the IC50 was determined as 0.085 µM. To `NC(=O)n1cc(NC(=O)N2C[C@@H](N)C[C@H]2C(=O)NCc2ccc3ccccc3c2)c2ccccc21` [Example 63, (2S,4S)-4-Amino-pyrrolidine-1,2-dicarboxylic acid 1-[(1-carbamoyl-1H-indol-3-yl)-amide] 2-[(naphthalen-2-ylmethyl)-amide]] belongs 11.4 µM; to `NC(=O)n1cc(NC(=O)N2C[C@@H](N)C[C@H]2C(=O)NCc2cccc3ccccc23)c2ccccc21` [Example 64, (2S,4S)-4-Amino-pyrrolidine-1,2-dicarboxylic acid 1-[(1-carbamoyl-1H-indol-3-yl)-amide] 2-[(naphthalen-1-ylmethyl)-amide]], 22.4 µM; to `Cc1cnc(CNC(=O)[C@@H]2C[C@H](N)CN2C(=O)Nc2cn(C(N)=O)c3ccccc23)s1` [Example 65, (2S,4S)-4-Amino-pyrrolidine-1,2-dicarboxylic acid 1-[(1-carbamoyl-1H-indol-3-yl)-amide] 2-[(5-methyl-thiazol-2-ylmethyl)-amide]], 13.1 µM. In the case of `NC(=O)n1cc(NC(=O)N2C[C@@H](N)C[C@H]2C(=O)NCc2ccc(Cl)s2)c2ccccc21` [Example 66, (2S,4S)-4-Amino-pyrrolidine-1,2-dicarboxylic acid 1-[(1-carbamoyl-1H-indol-3-yl)-amide] 2-[(5-chloro-thiophen-2-ylmethyl)-amide]], the IC50 came out at 0.065 µM.

As to `Cc1ccnc(CNC(=O)[C@@H]2C[C@H](N)CN2C(=O)Nc2cn(C(N)=O)c3ccccc23)c1` [Example 67, (2S,4S)-4-Amino-pyrrolidine-1,2-dicarboxylic acid 1-[(1-carbamoyl-1H-indol-3-yl)-amide] 2-[(4-methyl-pyridin-2-ylmethyl)-amide]], the IC50 was 22.2 µM. For the compound `C[C@H](NC(=O)[C@@H]1C[C@H](N)CN1C(=O)Nc1cn(C(N)=O)c2ccccc12)c1cccc(Cl)c1` [Example 68, (2S,4S)-4-Amino-pyrrolidine-1,2-dicarboxylic acid 1-[(1-carbamoyl-1H-indol-3-yl)-amide] 2-{[(S)-1-(3-chloro-phenyl)-ethyl]-amide}], the IC50 stood at 15.1 µM. Turning to `C[C@@H](NC(=O)[C@@H]1C[C@H](N)CN1C(=O)Nc1cn(C(N)=O)c2ccccc12)c1cccc(Cl)c1` [Example 69, (2S,4S)-4-Amino-pyrrolidine-1,2-dicarboxylic acid 1-[(1-carbamoyl-1H-indol-3-yl)-amide] 2-{[(R)-1-(3-chloro-phenyl)-ethyl]-amide}], the half-inhibitory concentration (IC50) came out at 1.05 µM. On to `NC(=O)n1cc(NC(=O)N2C[C@@H](N)C[C@H]2C(=O)NC(CO)c2cc(Cl)cc(Cl)c2)c2ccccc21` (stereo partly drawn) [Example 70, (2S,4S)-4-Amino-pyrrolidine-1,2-dicarboxylic acid 1-[(1-carbamoyl-1H-indol-3-yl)-amide] 2-{[1-(3,5-dichloro-phenyl)-2-hydroxy-ethyl]-amide}], for which the half-inhibitory concentration (IC50) turned out to be 2.58 µM.

With `NC(=O)n1cc(NC(=O)N2C[C@@H](N)C[C@H]2C(=O)NC(CCO)c2cccc(Cl)c2)c2ccccc21` (stereo partly drawn) [Example 71, (2S,4S)-4-Amino-pyrrolidine-1,2-dicarboxylic acid 1-[(1-carbamoyl-1H-indol-3-yl)-amide] 2-{[1-(3-chloro-phenyl)-3-hydroxy-propyl]-amide}], the IC50 amounted to 2.9 µM.

For the compound `NC(=O)n1cc(NC(=O)N2C[C@@H](N)C[C@H]2C(=O)NC2(c3ccccc3)CC2)c2ccccc21` [Example 72, (2S,4S)-4-Amino-pyrrolidine-1,2-dicarboxylic acid 1-[(1-carbamoyl-1H-indol-3-yl)-amide] 2-[(1-phenyl-cyclopropyl)-amide]], the IC50 is 7 µM. Consider `NC(=O)n1cc(NC(=O)N2C[C@@H](N)C[C@H]2C(=O)NC(c2ccccc2)c2ccccc2)c2ccccc21` [Example 73, (2S,4S)-4-Amino-pyrrolidine-1,2-dicarboxylic acid 2-benzhydryl-amide 1-[(1-carbamoyl-1H-indol-3-yl)-amide]], for which the IC50 was determined as 0.325 µM. For `NC(=O)n1cc(NC(=O)N2C[C@@H](N)C[C@H]2C(=O)NCC2CCCCC2)c2ccccc21` [Example 74, (2S,4S)-4-Amino-pyrrolidine-1,2-dicarboxylic acid 1-[(1-carbamoyl-1H-indol-3-yl)-amide] 2-cyclohexylmethyl-amide], the IC50 turned out to be 3.65 µM. As to `NC(=O)n1cc(NC(=O)N2C[C@@H](N)C[C@H]2C(=O)NC[C@@H]2CCCC[C@@H]2O)c2ccccc21` [Example 76, (2S,4S)-4-Amino-pyrrolidine-1,2-dicarboxylic acid 1-[(1-carbamoyl-1H-indol-3-yl)-amide] 2-[((1S,2S)-2-hydroxy-cyclohexylmethyl)-amide]], the IC50 was 15.7 µM.
